From patent US11332438B2, “Creatine prodrugs, compositions and methods of use thereof” (Ultragenyx Pharmaceutical Inc., priority 2017, dated 2022)

Columns and labels:
[1] = Chemical stability in phosphate buffered saline (PBS); assay type: physicochemical; details: Table 2B, 50 μM prodrug
Protocol: (§1) Chemical stability of creatine prodrugs in phosphate buffered saline (PBS), simulated intestinal fluid (SIF) without pancreatin, simulated gastric fluid (SGF) without pepsin were determined by LC-UV, LC-CAD, LC-UV-CAD or LC-MS/MS as appropriate. Creatine prodrugs of the present disclosure (50 μM) were incubated at 37° C. according to described protocols and prodrug levels were compared between t=0, t=15, t=60, and t=120 mins by peak area ratio to determine the percentage remained at t=120 mins (2 h).
(§2) Protocol for PBS, SIF and SGF stability for screening:
(§3) Prodrugs (50 μM) were incubated in PBS, FaSSIF (Biorelevant) or FaSSGF (Biorelevant) at 37° C.

[2] = system: Phenocell CrT deficient neurons (iPSC-derived human neurons); experiment: Creatine prodrug uptake and d3-creatine release in Phenocell CrT deficient neurons (Table 4B); assay type: cell-based; details: 2 hours
Protocol: Human neurons were obtained by differentiation of iPSC-derived neural stem cells for 14 days. The iPSCs were obtained from Phenocell Corporation. Neurons were cultured and differentiated to Day 10 and then frozen in liquid nitrogen. Neurons were thawed and replated at 1×10^6 per well of viable cells on poly-ornithine/laminin coated plates in 2 ml medium per well. Differentiation in complete Neurol medium with 2 ng/ml FGF2 was carried out for 4 additional days with a complete medium change (90% of medium) on Day 12. Activin A (20 ng/ml final conc.) was spiked into the cultures on Day 11 and Day 13. […] In parallel, compounds were incubated in medium alone to assess chemical stability of parent prodrug and metabolites. At the end of the 2 hour incubation, supernatants were collected and frozen at −80 C. Neurons in 6 well plates were washed gently 3× with HBSS and frozen at −80° C. Cell lysates were obtained by addition of 130 μl/well 10 mM Tris pH 7.4 with complete Mini protease inhibitors and scraping of wells. Plates were kept on ice during processing. Lysates were homogenized by hand briefly with a green pestle in 1.5 ml centrifuge tubes and then vortexed at high speed for 5 seconds. Lysates were centrifuged at 13,000 g, 10 minutes, 4 C and supernatants (cytosol fraction) were transferred in a new tube. A crash solution constituted of 80% acetonitrile and 20% water with bucetin, d5-Cr (internal standard) was added at 4:1 volume to volume to 50 ul of all samples for a total volume of 250 μL. Then plate was spun at 4000 rpm, 10 minutes, […] Samples were transferred to a new plate and frozen at −80 C prior to analysis by LC-MS/MS (Table 4B).

[3] = Chemical stability in simulated gastric fluid (SGF) without pepsin; assay type: physicochemical; details: Table 2B, 50 μM prodrug
Protocol: as §1, §2, §3

Structure (SMILES)	Prodrug concentration in the cell cytosol ([2]; Study No. 3, 50 μM)	d3-Creatine concentration in the cell cytosol ([2]; Study No. 3, 50 μM)	also measured
Cl.[2H]C([2H])([2H])N(CC(=O)OC(C)C(C)(C)C)C(=N)NC(=O)CCCCCCCCCC (stereo not shown) [Compound 52]	0.51 nmoles/mg protein	2.84 nmoles/mg protein	Chemical Stability PBS % T0 at 2 hours at 37 °C. [1]: 98%; Prodrug concentration in the cell cytosol ([2]; Study No. 1, 10 μM): 3.47 nmoles/mg protein; d3-Creatine concentration in the cell cytosol ([2]; Study No. 1, 10 μM): 0.65 nmoles/mg protein; d3-Creatinine concentration in the cell cytosol ([2]; Study No. 1, 10 μM): 0.84 nmoles/mg protein; Prodrug concentration in the cell cytosol ([2]; Study No. 1, 50 μM): 12 nmoles/mg protein; d3-Creatine concentration in the cell cytosol ([2]; Study No. 1, 50 μM): 2.9 nmoles/mg protein; d3-Creatinine concentration in the cell cytosol ([2]; Study No. 1, 50 μM): 29.6 nmoles/mg protein; Prodrug concentration in the cell cytosol ([2]; Study No. 2, 50 μM): 9.5 nmoles/mg protein; d3-Creatine concentration in the cell cytosol ([2]; Study No. 2, 50 μM): 0.8 nmoles/mg protein; d3-Creatinine concentration in the cell cytosol ([2]; Study No. 2, 50 μM): 10.6 nmoles/mg protein; d3-Creatinine concentration in the cell cytosol ([2]; Study No. 3, 50 μM): 8.82 nmoles/mg protein; Chemical Stability SGF, no enzyme % T0 at 2 hours at 37 °C. [3]: 98%
[2H]C([2H])([2H])N1CC(=O)OCCCCCCC(=O)NC1=N [Compound EE, 5-imino-4-trideuteriomethyl-1-oxa-4,6-diazacyclotridecane-2,7-dione]	BLOQ	BLOQ	
[2H]C([2H])([2H])N1CC(=O)OC(C)(C)CCCCCCCCC(=O)NC1=N [Compound HH, 5-imino-4-trideuteriomethyl-16,16-Dimethyl-1-oxa-4,6-diazacyclohexadecane-2,7-dione]	0.088 nmoles/mg protein	BLOQ	
[2H]C([2H])([2H])N1CC(=O)OC(C)CCCCCCCCCCC(=O)NC1=N (stereo not shown) [Compound M]			Prodrug concentration in the cell cytosol ([2]; Study No. 2, 100 μM): BLOQ; Prodrug concentration in the cell cytosol ([2]; Study No. 2, 500 μM): BLOQ
[2H]C([2H])([2H])N1CC(=O)OC(C)CCCCCCCC(=O)NC1=N (stereo not shown) [Compound S, 5-imino-4-trideuteriomethyl-15-methyl-1-oxa-4,6-diazacyclopentadecane-2,7-dione]	BLOQ	BLOQ	
[2H]C([2H])([2H])N1CC(=O)OC(CC)CCCCCCCC(=O)NC1=N (stereo not shown) [Compound V, 15-ethyl-5-imino-4-(methyl-d3)-1-oxa-4,6-diazacyclopentadecane-2,7-dione]	BLOQ	BLOQ	
[2H]C([2H])([2H])N1CC(=O)OC(CCC)CCCCCCCC(=O)NC1=N (stereo not shown) [Compound W, 5-imino-4-trideuteriomethyl-15-propyl-1-oxa-4,6-diazacyclopentadecane-2,7-dione]	0.44 nmoles/mg protein	BLOQ	
[2H]C([2H])([2H])N1CC(=O)OC(C)(C)CCCCCCCC(=O)NC1=N [Compound X, 5-imino-15,15-dimethyl-4-(methyl-d3)-1-oxa-4,6-diazacyclopentadecane-2,7-dione]	BLOQ	BLOQ	
